According to patent US20220119399A1, “COMPOUNDS AND COMPOSITIONS THAT CAUSE MYCN AND/OR CMYC DEGRADATION AND METHODS OF USE THEREOF” (THE TRUSTEES OF COLUMBIA UNIVERSITY IN THE CITY OF NEW YORK, priority 2018, published 2022):
“Also recorded” adds a separate entry of the source.

Experiments:
[1] = test system: NCI-H69, NCI-H526, NCI-H4414 and A549 cells; assay: Cell viability of four lung cancer cell lines; type: cell-based; settings: dose series
Protocol: Neuroblastoma (SK-N-Be2; IMR-32; NLF; SK-N-AS) and lung cancer cell lines (NCI-H69; NCI-H526; NCI-H441-4) were grown in Advanced RPMI medium (Life Technologies) supplemented with 10% FBS (Gibco), 1% GlutaMAX (Gibco), and 1% Penicillin/Streptomycin. A549 cells (NSCLC) was grown in F-12K medium (Gibco) with 10% FBS (Gibco), and 1% Penicillin/Streptomycin. Cell cultures were incubated at 37° C. with 5% CO2. For chemical screening, cells were trypsinized, counted and seeded into white opaque 384-well plates (Perkin Elmer) at a density of 1000 cells/well and incubated overnight. […] Cells were treated for 72 hrs, after which cell viability was determined using CellTiterGlo® luminescence assay, following the manufacturer's instructions (Promega). […] Cell viability data were analyzed and charted using PRISM v7.0 software (GraphPad). The dose-response curves were used to generate an inhibitory constant (IC50) value, which was averaged across the two cell lines from each subtype (ie: SK-N-AS and NLF as MESN NBL subtype; IMR-32 and SK-N-Be2 as MycN^AMP subtype). The IC50 values for each subtype were used to evaluate subtype selectivity of each compound, and identify compounds with enhanced potency in MycN^AMP NBL.

[2] = target: T1, CK2a1 (Homo sapiens, UniProt P68400); assay: Cell-free biochemical CK2a1 kinase assay; settings: for IC50: read-out: IC50 of CK2a kinase activity
T1 construct: purchased Reaction Biology Corporation (Malvern, Pa.)
Protocol: Cell-free biochemical kinase assays were performed at Reaction Biology Corporation (Malvern, Pa.). In brief, kinase substrates were diluted into reaction buffer containing 20 mM Hepes (pH 7.5), 10 mM MgCl2, 1 mM EGTA, 0.02% Brij35, 0.02 mg/ml BSA, 0.1 mM Na3VO4, 2 mM DTT, 1% DMSO. Purified protein (CK2a1, CK2a2, or mTOR) was added to the substrate solution and gently mixed. Test compounds were diluted from 10 mM DMSO stock solutions into the reaction buffer using an Echo550 acoustic dispenser, followed by incubation at RT for 20 min. 33P-ATP (10 μCi/μL) was added to reaction mixture, following incubation for 2 h at RT. Reactions were then spotted onto P81 ion exchange paper and kinase activity was detected by filter binding method.

[3] = test system: SK-N-Be2 cells; assay: Cell viability assay (CellTiterGlo) in SK-N-Be2 cells; type: cell-based, human; settings: SK-N-Be2 cells
[4] = Metabolic stability in mouse liver microsomes; type: in vitro ADME
Protocol: Mouse liver microsomes (Xenotech) were diluted to 0.5 mg/mL in a solution containing 100 mM PBS buffer at 7.4 pH, an NADPH regenerating system (Promega), and test compounds at 20 μM. The mixture was incubated at 37° C. under gentle rotation for the indicated time points. The reaction was quenched by aliquoting 15 μL of solution into 60 μL ice-cold acetonitrile containing an internal standard. Test compounds were quantified by LC-MS using a system comprised of a Thermo Scientific Dionex Ultimate 3000 and a Bruker amaZon SL equipped with an electrospray ionization source controlled by a Bruker Hystar 3.2. Compounds were separated by injecting 20 μL of sample onto an Agilent Eclipse Plus C18 column (2.1×50 mm, […]) maintained at 20° C., with the flow rate set at 400 μL/min. Initial flow conditions were 60% solvent A (MilliQ H2O, 0.1% acetic acid), and 40% solvent B (HPLC-grade MeOH, 0.1% acetic acid). Solvent B was raised to 60% over 0.25 min and to 70% by 6.75 min. Solvent B was raised to 95% by 7 min and lowered back to 40% by 8 minutes; total run time was 9 min.

[5] = test system: MYCNA tumor xenografts; assay: Tumor growth of MYCNA tumor xenografts; type: in vivo, mouse; settings: daily i.p. 20 mg/kg, 21 days, versus vehicle-only control
Protocol: 6-week old male mice were purchased from Charles River Laboratories, and housed in Columbia University's animal control barrier facilities, and mice were allowed one week to acclimate to their new environment. To establish tumor xenografts, 10×10^6 SK-N-Be2 cells were suspended in a 200 μL volume of 50% matrigel slurry. […] Mice were kept on standard chow diet (Purina), and their cage dressing changed twice weekly. Animals were investigated regularly for any sign of discomfort. […] To create the stock solution of isopomiferin, 5 mg of isopomiferin (MicroSource) was dissolved into 50 μL dimethyl sulfoxide (DMSO). To this 450 μL of cyclodextrin solution was added dropwise. Cyclodextrin is dissolved as a 50% w/v solution in 40% EtOH. It is important to add the cyclodextrin slowly and with continual mixing to solubilize the compound. This solution was added to one volume of PBS and filter-sterilized. This solution was then diluted to achieve appropriate concentrations for a 200 μL volume administration at 10 mg/kg to each mouse. The solution was administered to animals via intraperitoneal injection (i.p.). […]
The ability of the compounds to inhibit growth of MYCNA tumor xenografts was evaluated by treating tumor bearing mice with daily i.p. injections of 20 mg/kg isopomiferin or pomiferin. […] MYCN abundance was evaluated mid-experiment, following 14 days of treatment.

[6] = test system: TEAD4 transcript; assay: RNASeq analysis of SK-N-Be2 cells, TEAD4 transcript; type: cell-based, human; settings: 3 μM or 10 μM, 3 h and 6 h
Protocol: (§1) To uncover changes in gene expression that underpin responses to pomiferin and isopomiferin, RNASeq analysis of SK-N-Be2 cells was performed following treatment with the two active prenylated isoflavonoids as well as a null analog that served as a negative control. SK-N-Be2 cells were treated with either 3 μM or 10 μM of isopomiferin or pomiferin and sampled after 3 h and 6 h. […] By comparing the active to the null analogs, downstream analyses can focus on changes in gene expression associated with the MYCN signature.

[7] = test system: MYCN transcript; assay: RNASeq analysis of SK-N-Be2 cells, MYCN transcript; type: cell-based, human; settings: 3 μM or 10 μM, 3 h and 6 h
Protocol: as §1

[8] = Solubility; type: physicochemical
[9] = test system: MYCN MR signature; assay: RNASeq with VIPER analysis of the MYCN MR signature; type: cell-based, human; settings: SK-N-Be2 cells
Protocol: as §1
Intriguingly, only six MRs were suppressed by pomiferin and isopomiferin, while being unaffected by the null analog dimethyl pomiferin (FIG. 20B).

T1 sequence (P68400 whole entry): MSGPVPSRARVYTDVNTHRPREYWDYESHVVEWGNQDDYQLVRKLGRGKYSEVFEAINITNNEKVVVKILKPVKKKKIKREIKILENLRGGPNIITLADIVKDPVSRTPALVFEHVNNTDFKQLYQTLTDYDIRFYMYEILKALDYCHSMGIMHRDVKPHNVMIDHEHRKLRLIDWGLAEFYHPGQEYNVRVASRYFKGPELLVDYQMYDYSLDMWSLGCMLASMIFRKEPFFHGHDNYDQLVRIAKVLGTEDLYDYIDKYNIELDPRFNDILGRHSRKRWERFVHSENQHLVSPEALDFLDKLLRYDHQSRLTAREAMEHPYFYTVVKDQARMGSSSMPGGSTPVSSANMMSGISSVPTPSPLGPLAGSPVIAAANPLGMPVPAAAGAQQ

Row | SMILES | sensitivity of MycN-expressing versus non-expressing lung cancer lines (cell viability) [1] | IC50 [2] [µM] | IC20 ([3]; determined empirically) [µM] | compound remaining in mouse liver microsomes ([4]; mouse, microsomes, 2 h) [%] | tumor growth [5] | TEAD4 transcript (RNASeq) [6] | MYCN transcript abundance (RNASeq) [7] | solubility [8] | effect on the MYCN MR signature (VIPER of RNASeq) [9] | CK2a1 kinase activity [2] | inhibition of SK-N-Be2 cell viability (rank or activity in words) ([3]; 72 hrs) | compound remaining in mouse liver microsomes ([4]; 2 h incubation, 0.5 mg/mL microsomes) [%]
1 | CC1(C)C=Cc2c(c3c(c4c(=O)c(-c5ccc(O)c(O)c5)coc24)OC(C)(C)CC3)O1 [isopomiferin] | the MycN-expressing lines were more sensitive to isopomiferin treatment | ~7 | 10 | ~50 | these differences were not significant | did not affect TEAD4 | suppressed MYCN transcript abundance | not soluble in aqueous buffers | – | – | – | –
2 | CC(C)=CCc1c2c(c3occ(-c4ccc(O)c(O)c4)c(=O)c3c1O)C=CC(C)(C)O2 [pomiferin] | MycN-driven cell lines were more sensitive to the compound | ~7 | – | – | reduced rates of tumor proliferation that were significant from the vehicle-only control arm by day 19 | suppressed both MYCN and TEAD4 transcript | suppressed MYCN transcript abundance | – | had the strongest effect on the MYCN MR signature | inhibiting both isoforms equally in a concentration-dependent manner | the most potent compound of the group; also recorded: the most potent inhibitor of viability | ~80
